Test results reported in patent US7727961B2, “Antioxidant constituents” (Tokai Bussan Co., Ltd., priority 2004, dated 2010).
Like-named read-outs stand apart in the source and are kept apart here. Blank lines part the entries; values can stand above or below the compound they belong to.

What was measured:
[1] = Inhibition of ovalbumin (Ova) oxidative degradation by OH radical; conditions: for OH radical inhibitory concentration: concentration that completely inhibits the proteolytic action of 10 mM OH•; for Inhibitory action toward proteolysis by OH radical: Ova; for Inhibition effect on degradation of protein due to OH radical: 60 min, pH 7.2
Protocol: (§1) ClO•, OH•, and NO3• were prepared as three typical active oxygen species produced in the body. Clo• was prepared using a method wherein sodium hypochlorite was diluted to a pH 6.5 with distilled water, OH• by a partially modified Fenton method (B. Halliwell, et al., Analytical Biochmistry, No. 165, p. 215-219, 1987), and NO3• by a modified quenching flow reactor method (R. Radi, et al., Journal of Biological Chemistry, Vol. 266, p. 4244-4250, 1991). Next, Ova was dissolved in pH 7.2 buffered physiological saline to a concentration of 2.5 mg/mL, each concentration of antioxidant was added at a volume ratio of 10:1 with respect to the protein solution, the solution was let stand for 30 min at room temperature, each concentration of active oxygen was added in the same manner at a volume ratio of 10:1 with respect to protein solution, and ClO• oxidation was performed for 30 min at 37° C., OH• oxidation for 60 min at 37° C., and NO3 oxidation for 120 min at 37° C. After the reaction, sodium dodecylsulfate-polyacrylamide gel electrophoresis (SDS-PAGE) was performed on each sample, the gel was stained with Coomassie blue R250, and the Ova degradation inhibition rate was calculated from the densitometer reading. An accurate degradation inhibition rate was calculated using the following formula from the proteolytic inhibition activity obtained by performing GPC-HPLC using a TSKG-3,000SW column directly on the reacted samples.
(§2) Using the same test methods as described in (1) above, a comparison of inhibitory activity by various natural extracts on the Ova degradation by active oxygen was performed. The concentrations of the natural extracts tested were 5 mg/mL as solids.

[2] = Inhibition of ovalbumin (Ova) oxidative degradation by ClO radical; conditions: for Inhibitory action toward proteolysis by ClO radical: Ova; for Inhibition effect on degradation of protein due to ClO radical: 30 min, pH 7.2; for Rank of ClO•-scavenging strength (in words): complete inhibition of protein degradation by 10 mM ClO•, comparison of Table 3; for ClO radical inhibitory concentration: concentration that completely inhibits oxidative degradation of protein by 10 mM ClO•
Protocol: as §1, §2
The strength of antioxidant activity between peptides with antioxidant activity and sulfur-containing amino acids was compared with respect to ClO•, and between various antioxidants with antioxidant activity with respect to OH•.

[3] = Inhibition of ovalbumin (Ova) oxidative degradation by ONOO radical; conditions: for Inhibitory action toward proteolysis by ONOO radical: Ova; for Inhibition effect on degradation of protein due to ONOO radical: 120 min, pH 7.2; for Concentration that completely inhibited the oxidative effect of ONOO•: 5 mM ONOO•
Protocol: as §1, §2

[4] = tested on: glycated hemoglobin (HbAlc) in the blood; assay: Lowering of glycated hemoglobin in the blood of diabetic model GK rats; format: in vivo; conditions: 100 mg/kg orally for 28 days, FIG. 5
Protocol: Using the diabetes model animal GK rats (Y. Ihara, et al. FEBS Letters, Vol. 473, p. 24-26, 2000), the effectiveness of single doses of various antioxidants and combined doses of antioxidants in lowering the level of glycated hemoglobin (HbAlc) in the blood was compared.
As the ClO•-scavenger 200 mg/kg of anserine-carnosine mixture derived from chicken extract, as the OH•-scavenger wheat grass extract (total content of caffeic acid analogues 10 mg/kg), as the ONOO•-scavenger 100 mg/kg of V.C., and a composition containing all three antioxidants were administered orally to the GK rats for 28 days, and the blood HbAlc levels were measured at the end of dosing.

[5] = tested on: human red blood cells; assay: Microchannel (MC) transit capability of human red blood cells damaged by active oxygen; format: cell-based
Protocol: A microchannel (hereinafter, MC), which is a capillary model, is a device that measures hemorheology, i.e., the capability of blood to circulate through capillaries. Factors affecting hemorheology include meals, oxidative stress, etc. In the present invention the effects of the three active oxygen species produced in the body on the MC transit capability of human red blood cells were tested, and the effectiveness of various antioxidants in preventing the harmful effects of active oxygen were compared.
Next, the effectiveness of various antioxidants in preventing the MC transit damage due to various active oxygen species was measured using red blood cells. […] (2.5 mM) as the ONOO•-scavenger were used. These three types were mixed together and used as the antioxidant mixture.
A microchannel (MC), which is a capillary model, is a device that measures hemorheology, i.e., the capability of blood to circulate through capillaries. Factors effecting hemorheology include meals, oxidative stress, etc. In the present Example, the effects of the three active oxygen species produced in the body on the MC transit capability of human red blood cells were tested.
For the test method, blood from healthy human volunteers was subjected a Ficoll-Pague centrifuge (made by Amersham-Pharmacia Biotech) to separate a red blood cell fraction, and the MC transit time of the red blood (final concentration of hematocrit is 10%) treated by various active oxygen species was measured by an MC FAN KH-3A (channel width 7 μm, MC Laboratory, Inc.).

[6] = tested on: cholesterol in the blood; conditions: known from the literature (Herrera-Arellano 2004; Kim 2003); cited from earlier work
[7] = antioxidant 20 μM, 10 mM ClO radical
[8] = antioxidant 20 μM, 10 mM OH radical
[9] = antioxidant 5 mM, 10 mM ClO radical
[10] = antioxidant 5 mM, 10 mM OH radical
[11] = antioxidant 50 μM, 10 mM ClO radical
[12] = antioxidant 50 μM, 10 mM OH radical

Compound: O=C(O)/C=C/c1ccc(O)c(O)c1 [Caffeic acid, caffeic acid]
- OH radical inhibitory concentration [1]: 4.0 µM
- OH radical inhibitory concentration ([1]; listed as caffeic acid): 2.5 µM

Compound: CC1=C(/C=C/C(C)=C/C=C/C(C)=C/C=C/C=C(C)/C=C/C=C(C)/C=C/C2=C(C)C(=O)[C@@H](O)CC2(C)C)C(C)(C)C[C@H](O)C1=O [Astaxanthin, astaxanthin]
- Inhibitory action toward proteolysis by ClO radical [2, 7]: 24%
- Inhibitory action toward proteolysis by OH radical [1, 8]: 100%
- OH radical inhibitory concentration [1]: 0.5 µM
- Inhibitory action toward proteolysis by ONOO radical ([3]; antioxidant 20 μM): 28%

- Inhibition effect on degradation of protein due to ClO radical ([2]; 5 mM): 100
- Inhibition effect on degradation of protein due to OH radical ([1]; 5 mM): 15
- Inhibition effect on degradation of protein due to ONOO radical ([3]; 5 mM): 22
Compound: N[C@@H](CS)C(=O)O [Cysteine, L-cysteine]
- Rank of ClO•-scavenging strength (in words) [2]: most potent
- ClO radical inhibitory concentration [2]: 2.5 mM

Compound: O=C1O[C@H]([C@@H](O)CO)C(O)=C1O [Vitamin C, L-ascorbic acid]
- Decrease of blood HbAlc level [4]: 0.3%
- Inhibitory action toward proteolysis by ClO radical [2, 9]: 67%
- Inhibition of red blood cell MC transit damage due to ONOO• ([5]; hematocrit 10%, 5 mM ONOO radical, FIG. 10): inhibited the damage
- Inhibitory action toward proteolysis by OH radical [1, 10]: 0%
- Concentration that completely inhibited the oxidative effect of ONOO• [3]: 1 mM
- Inhibitory action toward proteolysis by ONOO radical ([3]; antioxidant 5 mM): 100%

Compound: COc1cc(/C=C/C(=O)O)ccc1O [Ferulic acid, ferulic acid]
- Inhibitory action toward proteolysis by ClO radical [2, 11]: 7%
- Inhibitory action toward proteolysis by OH radical [1, 12]: 100%
- OH radical inhibitory concentration [1]: 2.5 µM
- Inhibitory action toward proteolysis by ONOO radical ([3]; antioxidant 50 μM): 34%
- Effect of lowering the level of cholesterol in the blood (in words) [6]: have an effect of lowering the level of cholesterol in the blood

- Inhibition of Ova oxidative degradation by ClO• (in words) ([2]; FIG. 1, 10 mM ClO radical, β-carotene 20 μM, EGCG 500 μM): faint inhibitory activity
- Concentration at which oxidative degradation of Ova by OH• was completely inhibited ([1]; FIG. 1, 10 mM OH radical, tested concentration): 5 µM
- Concentration showing degradation inhibitory activity against ONOO• ([3]; FIG. 1, said to exceed physiologically relevant concentrations): 500 µM
Compound: O=C(O[C@@H]1Cc2c(O)cc(O)cc2O[C@@H]1c1cc(O)c(O)c(O)c1)c1cc(O)c(O)c(O)c1 [Epigallocatechin gallate, epigallocatechin gallate]
- Inhibition of red blood cell MC transit damage due to OH• ([5]; antioxidant 50 μM, FIG. 4): completely inhibited
- OH radical inhibitory concentration [1]: 2.5 µM

Compound: O=C1O[C@H]([C@@H](O)CO)C([O-])=C1O.[Na+] [sodium V.C.]
- Concentration that completely inhibited the oxidative effect of ONOO• [3]: 1 mM

Compound: O=C(/C=C/c1ccc(O)c(O)c1)O[C@@H]1C[C@](O)(C(=O)O)C[C@@H](O)[C@H]1O [Chlorogenic acid, chlorogenic acid]
- Effect of lowering the level of cholesterol in the blood (in words) [6]: have an effect of lowering the level of cholesterol in the blood

Compound: N[C@@H](CS(=O)(=O)O)C(=O)O [Cysteic acid, cysteic acid]
- ClO radical inhibitory concentration [2]: 7.5 mM

Compound: N[C@@H](CCC(=O)N[C@@H](CS)C(=O)NCC(=O)O)C(=O)O [Reduced glutathione, reduced glutathione]
- Rank of ClO•-scavenging strength (in words) [2]: most potent
- ClO radical inhibitory concentration [2]: 2.5 mM

Compound: O=c1c(O)c(-c2ccc(O)c(O)c2)oc2cc(O)cc(O)c12 [Quercetin, quercetin]
- Inhibitory action toward proteolysis by ClO radical [2, 11]: 5%
- Inhibitory action toward proteolysis by OH radical [1, 12]: 100%
- OH radical inhibitory concentration [1]: 2.5 µM
- Inhibitory action toward proteolysis by ONOO radical ([3]; antioxidant 50 μM): 16%

Compound: alliin
- ClO radical inhibitory concentration [2]: 7.5 mM

- Inhibition effect on degradation of protein due to ClO radical ([2]; 5 mM): 100
- Inhibition effect on degradation of protein due to OH radical ([1]; 5 mM): 20
- Inhibition effect on degradation of protein due to ONOO radical ([3]; 5 mM): 20
Compound: CC(=O)N[C@@H](CS)C(=O)O [N-acetyl-L-cysteine]
- Rank of ClO•-scavenging strength (in words) [2]: most potent
- ClO radical inhibitory concentration [2]: 2.5 mM

- Inhibition effect on degradation of protein due to ClO radical ([2]; 50 μM): 0
- Inhibition effect on degradation of protein due to OH radical ([1]; 50 μM): 100
- Inhibition effect on degradation of protein due to ONOO radical ([3]; 50 μM): 0
Compound: COC1=C(OC)C(=O)C(C/C=C(\C)CC/C=C(\C)CC/C=C(\C)CC/C=C(\C)CC/C=C(\C)CC/C=C(\C)CC/C=C(\C)CC/C=C(\C)CC/C=C(\C)CCC=C(C)C)=C(C)C1=O [CoQ10]
- Inhibition of red blood cell MC transit damage due to OH• ([5]; hematocrit 10%, 10 mM OH radical, FIG. 10): inhibited the damage

Compound: NCCC(=O)N[C@@H](Cc1cnc[nH]1)C(=O)O [Carnosine, carnosine]
- ClO radical inhibitory concentration [2]: 5.0 mM

Compound: Cn1cncc1C[C@H](NC(=O)CCN)C(=O)O [Anserine, anserine]
- ClO radical inhibitory concentration [2]: 5.0 mM

- Concentration showing degradation inhibitory activity against ONOO• [3]: 500 µM
Compound: Oc1cc(O)c2c(c1)OC(c1ccc(O)c(O)c1)C(O)C2 (centres unmarked) [Catechins, catechins]
- Inhibitory action toward proteolysis by ClO radical [2, 11]: 0%
- Inhibitory action toward proteolysis by OH radical [1, 12]: 100%
- OH radical inhibitory concentration [1]: 2.5 µM
- Inhibitory action toward proteolysis by ONOO radical ([3]; antioxidant 50 μM): 58%

- Concentration showing degradation inhibitory activity against ONOO• [3]: 10 µM
Compound: CC1=C(/C=C/C(C)=C/C=C/C(C)=C/C=C/C=C(C)/C=C/C=C(C)/C=C/C2=C(C)CCCC2(C)C)C(C)(C)CCC1 [B-carotene, β-carotene]
- Inhibitory action toward proteolysis by ClO radical [2, 7]: 38%
- Inhibitory action toward proteolysis by OH radical [1, 8]: 100%
- OH radical inhibitory concentration [1]: 0.5 µM
- Inhibitory action toward proteolysis by ONOO radical ([3]; antioxidant 20 μM): 74%

- Inhibition effect on degradation of protein due to ClO radical ([2]; 5 mM): 100
- Inhibition effect on degradation of protein due to OH radical ([1]; 5 mM): 62
- Inhibition effect on degradation of protein due to ONOO radical ([3]; 5 mM): 45
Compound: CSCC[C@H](N)C(=O)O [Methionine, methionine]
- ClO radical inhibitory concentration [2]: 5.0 mM

Compound: Cc1c(C)c2c(c(C)c1O)CC[C@@](C)(CCC[C@H](C)CCC[C@H](C)CCCC(C)C)O2 [Vitamin E, α-tocopherol]
- Inhibitory action toward proteolysis by ClO radical [2, 9]: 0%
- Inhibitory action toward proteolysis by OH radical [1, 10]: 98%
- Rank of OH•-scavenging strength (in words) ([1]; complete inhibition of proteolysis by 10 mM OH•, comparison of Table 4): weakest antioxidant activity
- OH radical inhibitory concentration [1]: 2500 µM
- Antioxidant activity against OH• (inhibition of proteolysis) relative to astaxanthin ([1]; fraction of the activity of the carotenoid astaxanthin): approximately 1/5000
- Inhibitory action toward proteolysis by ONOO radical ([3]; antioxidant 5 mM): 22%
